Data from patent publication US20230372458A1, “ANTIVIRAL AGENT FOR COMBINED THERAPY OF COVID-19 (SARS-COV-2)” (priority 2020, published 2023).
Read-outs that look alike come from different tables or passages of the source.

Tested on: COVID-19 (SARS-CoV-2)
Conditions: lung damage by computer tomography

Which results are given for `NC(=O)c1nc(F)cnc1O` [FPV, 6-fluoro-3-hydroxy-2-pyrazinecarboxamide]?
CT on Day 14: Improvement, percent of patients: (72.7%); CT on Day 14: No change, percent of patients: (9.1%); CT on Day 14: Worsening, percent of patients: (18.2%); CT on Day 14: Improvement, number of patients (count of patients): 8; CT on Day 14: No change, number of patients (count of patients): 1; CT on Day 14: Worsening, number of patients (count of patients): 2; CT on Day 14: Improvement, percent of patients (listed as FVP): 72.7%; CT on Day 14: No change, percent of patients (listed as FVP): 9.1%; CT on Day 14: Worsening, percent of patients (listed as FVP): 18.2%
